Results reported in patent US6608185B1, “Substances KF-1040T4A,KF-1040T4B, KF-1040T5A, and KF-1040T5B, and process for producing same” (Kitasato Institute, priority 2002, dated 2003).
Values after ≈ are worked out from the molar mass of the structure shown.

Columns and labels:
[1] = target: diacylglycerol acyltransferase; assay: Inhibitory action against rat-originated diacylglycerol acyltransferase (rat liver microsomal fraction); type: biochemical; settings: [1-14C]palmitoyl-CoA, 23° C., 15 minutes
Method: (1) Inhibitory Action against Rat-originated Diacylglycerol Acyltransferase
The activity of diacylglycerol acyltransferase was determined in accordance with the method of Mayorek and BarTana, [J. Biol. Chem., 260, 6528-6532 (1985)] with partial modification.
Namely, a microsomal fraction prepared from rat liver was used as the enzyme source. To a 175 mM Tris-HCl buffer (pH 8.0) containing 8 mM of MgCl2, 1 mg/ml of bovine serum albumin and 2.5 mM of diisopropyl fluorophosphate, there were added 0.75 mM of dioleoylglycerol and 30 μM of [1^−14C] palmitoyl-CoA (0.02 μCi) and the total volume was adjusted to 200 μl, whereupon the enzymatic reaction mixture was incubated at 23° C. for 15 minutes. The total lipids were extracted with chloroform/methanol (1/2) mixture and each lipid was separated by a TLC (with Kiselgel GF254 and a developing solvent of petroleum ether/diethyl ether/acetic acid of 80/20/1), followed by measurement of the radioactivity of the triacylglycerol fraction using RI RADIO-SCANNER (manufactured by AMBIS System Inc., U.S.A.) to determine the diacylglycerol acyltransferase activity.

[2] = test system: Raji cell originating from human Burkitt lymphoma (triacylglycerol synthesis); assay: Inhibitory action against synthesis of triacylglycerol in human-originated Raji cells; type: cell-based; settings: [1-14C]oleic acid, 37° C., 30 minutes; for IC50: Homo sapiens, 0.5 h, read-out: drug concentration corresponding to 50% inhibition of triacylglycerol synthesis
Method: (2) Inhibitory Action against Synthesis of Triacylglycerol in Human-originated Cells (Raji Cell originating from Human Burkitt Lymphoma)
The assessment of the influence of the substances on triacylglycerol synthesis was performed in accordance with the method of Tomoda et al. [J. Biol. Chem., 266, 4214-4219 (1991)] using human-originated cells (Raji cell originated from human Burkitt lymphoma). A Raji cell dispersion of 2.7×10^6 cells per milliliter containing […] [1^−14C] oleic acid (0.02 μCi) was filled up to a total volume 200 μl, whereupon the reaction proceeded at 37° C. for 30 minutes. The total lipids were extracted with a chloroform/methanol (2/1) mixture. Then, the activity was measured in the same manner as in the “inhibitory action against rat-originated diacylglycerol-acyltransferase”.
The calculation of the drug concentration corresponding to 50% inhibition of triacylglycerol synthesis gives a value of 10 μg/ml for all the substances KF-1040T4A, KF-1040T4B, KF-1040T5A and KF-1040T5B.

[3] = target: T1, acid sphingomyelinase (Homo sapiens, UniProt P17405); assay: Influence on human placenta-originated acid sphingomyelinase; type: biochemical; settings: human placenta enzyme (Sigma), pH 5.0, 37° C., 30 minutes; read-out: concentration corresponding to 50% inhibition of acid sphingomyelinase (converted)
T1 construct: an acid sphingomyelinase originating from human placenta (a product of Sigma Co.) was used as the enzyme source; purchased Sigma Co; host or cells: human placenta (tissue-derived enzyme)
T1 sequence (P17405 47-631): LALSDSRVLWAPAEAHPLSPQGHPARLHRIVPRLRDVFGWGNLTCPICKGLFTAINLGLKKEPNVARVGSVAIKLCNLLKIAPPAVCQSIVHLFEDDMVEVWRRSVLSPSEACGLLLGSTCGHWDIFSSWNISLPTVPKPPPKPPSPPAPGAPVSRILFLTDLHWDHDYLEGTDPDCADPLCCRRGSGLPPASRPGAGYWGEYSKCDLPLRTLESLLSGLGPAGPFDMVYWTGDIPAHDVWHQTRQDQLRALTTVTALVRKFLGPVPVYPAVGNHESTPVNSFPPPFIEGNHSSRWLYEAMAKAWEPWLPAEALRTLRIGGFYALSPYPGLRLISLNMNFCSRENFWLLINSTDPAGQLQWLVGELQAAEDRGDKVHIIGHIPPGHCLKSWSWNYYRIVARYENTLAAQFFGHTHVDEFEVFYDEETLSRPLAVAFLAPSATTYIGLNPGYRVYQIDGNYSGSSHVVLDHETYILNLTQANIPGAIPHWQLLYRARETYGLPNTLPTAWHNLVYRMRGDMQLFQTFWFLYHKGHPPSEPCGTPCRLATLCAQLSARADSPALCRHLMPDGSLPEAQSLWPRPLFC
Method: (4) Influence on Human Placenta-originated Acid Sphingomyelinase
The assessment of the influence of the substances on human placenta-originated acidic sphingomyelinase was performed in accordance with the method of Jones et al. [Biochem. Journal, 195, 373-382 (1981)] with partial modification.
Thus, an acid sphingomyelinase originating from human placenta (a product of Sigma Co.) was used as the enzyme source and thereto were added 250 mM of sodium acetate buffer solution (pH 5.0), 0.1% of NP-40 (a product of Sigma Co.), and 25 μM [N-methyl-^3H] sphingomyelin (0.006 μCi), and the mixture was filled up to a total volume of 50 μl. After reaction at 37° C. for 30 minutes, 200 μl of chloroform/methanol mixture (1/2 in volume ratio) was added thereto to separate the reaction product [^3H] phosphocholine from the starting material [^3H] sphingomyelin. The upper layer was taken up into a […]. The amount of [^3H] phosphocholine was quantitatively determined by a liquid scintillation counter to estimate the acid sphingomyelinase activity.

[4] = Solubility in solvents; type: physicochemical

drug concentration corresponding to 50% inhibition of diacylglycerol acyltransferase [1] [µg/mL]	IC50 [2] [µg/mL]	IC50 [3] [µM]	Solubility in solvents: methanol, benzene, chloroform and ethyl acetate [4]	Solubility in solvents: water and hexane [4]	SMILES	drug concentration corresponding to 50% inhibition of triacylglycerol synthesis [2] [µg/mL]
13.2	10 (≈ 12.9 µM)	300	soluble	slightly soluble	CCC(C)CC(C)CC(C)C(OC1OC(CO)C(O)C(O)C1O)C(C)/C=C(\C)C(O)C(C)/C=C(\C)C(O)C(C)/C=C(\C)C(=O)OCC(O)C(O)C(O)CO (single isomer, unassigned) [KF-1040T4A]	–
11.6	–	90.1	soluble	slightly soluble	CCC(C)CC(C)CC(C)C(OC1OC(CO)C(O)C(O)C1O)C(C)/C=C(\C)C(O)C(C)/C=C(\C)C(O)C(C)/C=C(\C)C(=O)OCC(O)C(O)C(O)CO (single isomer, unassigned) [KF-1040T4B]	10
18.0	10 (≈ 12.2 µM)	239	soluble	slightly soluble	CCC(C)CC(C)CC(C)C(OC1OC(COC(C)=O)C(O)C(O)C1O)C(C)/C=C(\C)C(O)C(C)/C=C(\C)C(O)C(C)/C=C(\C)C(=O)OCC(O)C(O)C(O)CO (single isomer, unassigned) [KF-1040T5A]	–
14.7	–	59.8	soluble	slightly soluble	CCC(C)CC(C)CC(C)C(OC1OC(COC(C)=O)C(O)C(O)C1O)C(C)/C=C(\C)C(O)C(C)/C=C(\C)C(O)C(C)/C=C(\C)C(=O)OCC(O)C(O)C(O)CO (single isomer, unassigned) [KF-1040T5B]	10
